Source: patent US20260284082A1, “TARGETING THE PANX1-P2Y2R-TRPV4 PATHWAY TO TREAT LUNG ISCHEMIA-REPERFUSION INJURY” (UNIVERSITY OF VIRGINIA PATENT FOUNDATION, priority 2023, published 2026)

Tests used:
TRPV4 channels = settings: CPA 20 μM as used; cited from earlier work
[1] = human, in vivo; cited from earlier work
TRPV4EC channels = experiment: TRPV4 sparklet activity in endothelium of small PAs after lung IR (in presence of CPA); format: cell-based, mice; settings: apyrase 10 U/mL; small PAs after lung IR
Experimental: Murine lung IR model: A well-established left lung IRI model involving temporary in vivo ligation of the left hilum (pulmonary artery, vein, and airway) was used.^6 Briefly, mice were anesthetized with inhaled isoflurane, intubated, ventilated with room air at 150 strokes/min with a tidal volume of […] (Harvard Apparatus Co, South Natick, MA), and heparinized (20 U/kg: Hospira Inc, Lake Forest, IL). An anterolateral thoracotomy was performed through the fourth intercostal space to expose the left hilum. A 6-0 Prolene suture (Ethicon. Somerville, NJ) was passed around the left hilum, and the suture ends were passed through a 5-mm length of polyethylene (PE)-50 tubing. A surgical clip was used to fashion a Rummel tourniquet to provide temporary occlusion of the left hilar structures. The thoracotomy was closed, anesthesia was weaned, and analgesia was administered (intraperitoneal buprenorphine. 0.2 mg/kg). Animals recovered in their cages during the 1-hour ischemic period, after which they were anesthetized again and intubated, the Rummel tourniquet was removed, and the thoracotomy was closed. Animals were again extubated, recovered in their cage, and monitored during the 2-hour reperfusion period. […]
(§1) Ca^2+ imaging in Pas: Ca^2+ imaging in small Pas was performed as previously described.8 Fourth-order, small (~50 μm diameter) Pas (see FIG. 1B) were dissected from left lungs in cold HEPES-buffered physiological salt solution (HEPES-PSS; 10 mM HEPES, 134 mM NaCl, 6 mM KCl, 1 mM MgCl2 hexahydrate, 2 mM CaCl2) dihydrate, and 7 mM dextrose; pH adjusted to 7.4 using 1 M NaOH). […] Fluo-4 was excited using a 488-nm solid-state laser, and emitted fluorescence was captured using a 525/36-nm band-pass filter. […] Baseline Ca^2+ signaling activity was recorded in the absence of CPA.
TRPV4 sparklets were assessed as increases in fluorescence relative to baseline fluorescence, obtained by averaging 10 quiescent images prior to stimulation. […]

[2] = tested on: pulmonary endothelium of small PAs; experiment: Baseline endothelial Ca2+ signaling in en face small PAs after lung IR (Fluo-4 confocal imaging); format: cell-based, mice; settings: apyrase 10 U/mL; small PAs after lung IR
Experimental: Murine lung IR model: A well-established left lung IRI model involving temporary in vivo ligation of the left hilum (pulmonary artery, vein, and airway) was used.^6 Briefly, mice were anesthetized with inhaled isoflurane, intubated, ventilated with room air at 150 strokes/min with a tidal volume of […] (Harvard Apparatus Co, South Natick, MA), and heparinized (20 U/kg: Hospira Inc, Lake Forest, IL). An anterolateral thoracotomy was performed through the fourth intercostal space to expose the left hilum. A 6-0 Prolene suture (Ethicon. Somerville, NJ) was passed around the left hilum, and the suture ends were passed through a 5-mm length of polyethylene (PE)-50 tubing. A surgical clip was used to fashion a Rummel tourniquet to provide temporary occlusion of the left hilar structures. The thoracotomy was closed, anesthesia was weaned, and analgesia was administered (intraperitoneal buprenorphine. 0.2 mg/kg). Animals recovered in their cages during the 1-hour ischemic period, after which they were anesthetized again and intubated, the Rummel tourniquet was removed, and the thoracotomy was closed. Animals were again extubated, recovered in their cage, and monitored during the 2-hour reperfusion period. Sham animals underwent the same surgical procedure except that application of the Rummel tourniquet to induce ischemia was omitted; thus, these animals were perfused for a total of 3 hours.
as §1, with “CPA. […]” for “CPA.”

[3] = tested on: eATP efflux through Panx1 channels; experiment: Luciferase assay for eATP release from small PAs; format: cell-based, mouse; settings: GSK101 10 nM
Experimental: Luciferase assay for total ATP release: Small Pas were cut open and pinned down en face on a Sylgard block. Pas were then placed in black, opaque 96-well plates and incubated in HEPES-PSS for 10 minutes at 37° C., followed by incubation with the ectonucleotidase inhibitor ARL 67156 (300 μmol/L; Tocris Bioscience, Minneapolis, MN) for 30 minutes at 37° C. A 50-μL aliquot of each sample was transferred to another black, opaque 96-well plate, and ATP was measured using an ATP Bioluminescence HSII kit (Roche Applied Science, Penzberg, Germany).^5 Briefly, 50 μL of the luciferase reagent, luciferin, provided in the assay kit (Roche Applied Science), was added to each well and. following a 5-second orbital mix, luminescence was recorded using a luminometer (FluoStar Omega). ATP concentrations were calculated by reference to an ATP standard curve.

**Q.** For `CC(=O)C1=C(O)[C@@H]2[C@H]3c4c[nH]c5cccc(c45)C[C@H]3C(C)(C)N2C1=O` [CPA, Cyclopiazonic acid], which “effect of CPA by itself on activity of TRPV4 channels” value (TRPV4 channels) is on record?
**A.** does not alter

**Q.** For `CC(C)(O)c1cnc(N2C[C@@]3(CCC[C@](C)(Cn4cnc5ccc(C#N)cc54)C3)OC2=O)cn1` [GSK2798745], which tolerability [1] is on record?
**A.** well tolerated

**Q.** For apyrase, which “IR-induced increase in TRPV4EC channel activity” value (TRPV4EC channels) is on record?
**A.** abolished

**Q.** And the “IR-induced increase in baseline Ca2+ signaling activity” value [2]?
**A.** abolished

**Q.** With `CC(C)C[C@H](NC(=O)c1cc2ccccc2s1)C(=O)N1CCN(C(=O)[C@H](CO)NS(=O)(=O)c2ccc(Cl)cc2Cl)CC1` [GSK101, GSK1016790A] as the compound, how does the “eATP efflux through Panx1 channels (eATP release from small PAs)” value [3] read?
**A.** increased
